Assay results taken from PMC10644391, “Targeted Reversible Covalent Modification of a Noncatalytic Lysine of the Krev Interaction Trapped 1 Protein Enables Site-Directed Screening for Protein–Protein Interaction Inhibitors” (ACS Pharmacology & Translational Science, 2023).

Experiments:
[1] = test system: KLF2; design: method as in PMID 33977234; conditions: HUVECs, 24 h of incubation; cited from earlier work
[2] = HEK293 cytotoxicity, resazurin cell viability assay; format: cell-based; conditions: human, HEK293 cells, means ± SD, n = 3
Method: Maintenance of HEK293 Cells. HEK293 cell lines (American Type Culture Collection (ATCC)) were cultured in Dulbecco's Modified Eagle Medium (DMEM, Invitrogen) supplemented with 10% heat-inactivated fetal bovine serum (FBS, Gibco) and penicillin-streptomycin (1%). Cells were kept at 37 °C and 5% CO2, and were passaged every 72 hours.
Resazurin Cell Viability Assay. The cytotoxicity in HEK293 cells were determined using a resazurin cell viability assay. Test compounds in DMSO were diluted to 100x desired final assay concentration (maximum concentration of 100 µM) in eight-point dose response. 1 µL of test compounds were plated in a 96-well clear bottom tissue culture microplate. 49 µL of cell culture media was added to each well. Cells were diluted to 4 x 10^5 cells/mL, and 50 µL of this cell suspension was seeded to each well for a total of 2 x 10^4 cells/well. The assay plate was kept at 37 °C and 5% CO 2 for either 4 or 48 hours. At the end of the incubation time, 20 µL of 0.5 mM resazurin sodium salt (Alfa Aesar) solution in PBS was added to each well. The assay plates were incubated further at 37 °C for 2 hours. Fluorescence was measured at 531 nm and 595 nm excitation and emission wavelengths, respectively, using a 2104 EnVision® multilabel plate reader. CC50 values were obtained using sigmoidal curved generated with Prism GraphPad (San Diego, CA). SD values are reported as the standard deviation of the CC50 values of 3 biological replicates. All

[3] = test system: HEG1-KRIT1 PPI; conditions: previously reported data; read-out: HEG1-KRIT1 IC50, flow cytometry assay; cited from earlier work
[4] = target: T1, HEG1-KRIT1 PPI (Homo sapiens, UniProt O00522); assay: HEG1-KRIT1 PPI fluorescence polarization (FP) time-resolved assay; format: biochemical
T1 construct: a recombinant FERM domain (residues 417–736) of KRIT1; made in house; host or cells: E. coli
Method: To evaluate the binding kinetics of HNA inhibitors, a fluorescence polarization (FP) time-resolved assay that uses a recombinant FERM domain (residues 417–736) of KRIT1 and a fluorescence-tagged HEG1 cytoplasmic tail (Cy5-HEG1 7-mer peptide) was developed (Supporting Information). Using HNA as a test compound, the FP data, expressed as millipolarization (mP) units, were obtained every 10 min over the course of 4–7 h. […] Thus, for practical purposes, a 4-h incubation time was established as the standard assay time for non-kinetic IC50 evaluations.
Fluorescence Polarization Assay and Optimization
The KRIT1 FERM domain (residues 417-736) was cloned into plasmid and recombinantly expressed in E. coli as previously described,1 while the Cy5-HEG1 7- mer peptide bearing the Cy5 dye as fluorescent probe was prepared by and purchased from GenScript (New Jersey, US). HEPES- buffered saline (HBS) buffer was supplemented (0.01%) with detergent Triton X -100 to minimize protein adsorption to the microplate. The assay was setup in a 96-well plate plated with 80 nM KRIT1, 4 nM Cy5- HEG1 probe, and either non-tagged HEG1 peptide or HNA as inhibitor (in 5% DMSO). To account for background fluorescence that could interfere with the assay, background wells with only test compound and Cy5 -HEG1 probe (no KRIT1) were also plated. The FP data, expressed as millipolarization (mP) units, were obtained […]
course of 4-7 hours (for kinetic characterization) using a Tecan Spark® Multimode Microplate Reader. The background mP (no KRIT1) was subtracted from mP to account for background fluorescence. All assays were done in triplicates.
Several FP assay conditions were optimized. First, the HEG1 probe engagement of KRIT1 was examined and its interaction was determined to be rapid equilibrium, thus any observed time dependance in response when an inhibitor displaces the probe is the result of inhibitor exchange kinetics and not that of the probe. Next, the affinity of KRIT1 for the probe (Kd) was examined by following the change in polarization signal as a function of a matrix of five probe concentrations and four KRIT1 concentrations (Figure S1B ). A global fit of equation 3 to polarization responses of the inhibitor vs KRIT1 concentration […]
even after 7 hours of incubation. For practical purposes, we have chosen 4 hours as our standard incubation time since it appeared that most of the inhibition has been reached at this time point. The kinetic characterization of HNA as a HEG1- KRIT1 inhibitor will be discussed in greater detail in the kinetic section […]
values to those obtained from the flow cytometry assay. Finally, to assess the robustness of the FP assay, […]
a robust assay) representing an excellent assay with clear differences between positive and negative controls.2 Evaluation of HEG1-KRIT1 inhibitors prior to the optimization of the FP assay were done using flow cytometry, while subsequent compounds were evaluated using the FP assay. All subsequent assay plates included HNA as comparison and control.
Figure S1. Optimization of fluorescence polarization (FP) assay.
HEG1-KRIT1 inhibition. (B) Optimization of KRIT1 protein and Cy5 -HEG1 probe concentrations. Dose-response curve of HNA obtained via fluorescence polarization (C) and flow cytometry (D) assays show […]
All assays were tested in technical duplicates or triplicates in at least 2 different

[5] = pKa by potentiometric titration (Sirius T3); format: physicochemical; conditions: potentiometric titrations, means ± SD of three titrations
[6] = test system: KLF4; design: method as in PMID 33977234; conditions: HUVECs, 24 h of incubation; cited from earlier work
[7] = global fit across six or more inhibitor concentrations, means ± SD, n = 3

T1 sequence (O00522 417-736): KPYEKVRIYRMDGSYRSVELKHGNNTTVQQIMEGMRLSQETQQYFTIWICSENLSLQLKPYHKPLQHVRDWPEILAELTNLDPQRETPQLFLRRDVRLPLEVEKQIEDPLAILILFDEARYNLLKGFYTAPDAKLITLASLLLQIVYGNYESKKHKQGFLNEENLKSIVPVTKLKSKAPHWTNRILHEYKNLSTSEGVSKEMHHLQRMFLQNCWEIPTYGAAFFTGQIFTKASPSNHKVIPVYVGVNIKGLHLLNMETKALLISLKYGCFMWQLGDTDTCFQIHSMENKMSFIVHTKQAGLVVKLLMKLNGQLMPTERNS

Question: For `O=Cc1c(O)ccc2ccccc12` [Compound 1, 2-hydroxy-1-naphthaldehyde], which KLF2 expression [1] is on record?
Answer: upregulation

Question: And the CC50 at 48 h [2]?
Answer: ~100 µM

Question: And the IC50 [3]?
Answer: 3.09 µM

Question: And the “difference in affinity, KRIT1 (FP assay) vs N-α-acetyl lysine” value ([4]; Ki for KRIT1 vs Kd for N-α-acetyl lysine)?
Answer: > 70,000 fold

Question: And the IC50 ([4]; fluorescence polarization assay after 4 h of incubation, means ± SD, n = 3)?
Answer: 8.14 ± 0.82 µM

Question: What about the “inhibition of HEG1-KRIT1 PPI upon co-incubation with free lysine” value ([4]; free lysine 50 μM in the assay buffer) of the same compound?
Answer: did not meaningfully change

Question: What about the “HEG1-KRIT1 PPI Assay kon” value [4, 7] of the same compound?
Answer: 14.4 ± 0.583 M⁻¹ s⁻¹

Question: And the koff [4, 7]?
Answer: 3.31e-05 s⁻¹

Question: And the “HEG1-KRIT1 PPI Assay kon” value ([4]; global fit across six or more inhibitor concentrations, means ± SD, n = 3, listed as HNA)?
Answer: 14.4 M⁻¹ s⁻¹

Question: What about the Ki ([4]; global fit, means ± SD, n = 3, unit in Figure 2E, read-out: HEG1-KRIT1 PPI Assay Ki (koff/kon)) of the same compound?
Answer: 2.29 ± 0.44 µM

Question: What about the pKa [5] of the same compound?
Answer: 7.34 ± 0.02

Question: And the KLF4 expression [6]?
Answer: upregulation
